Assay results as given in patent publication US20090233917A1, “Stroke recovery” (priority 2006, published 2009).

Columns and labels:
[1] = Cerebrospinal fluid (CSF) levels after oral administration in humans; assay type: in vivo, human; conditions: 3 and 6 hours after oral administration, increasing doses
[2] = test system: MCA occlusion in rats; assay: Functional recovery following MCA occlusion in rats, dose study (Examples 2, 3, 6); assay type: in vivo, Sprague Dawley Rats
Description: Fifty male Sprague Dawley Rats, each weighing 300-400 g, are operated under anesthesia to create MCA occlusion as described in Example 1, and are divided into 5 groups of 10 animals each. Each group is given arimocolomol, p.o., starting at one day after the occlusion at 25 mg/kg/d, 50 mg/kg/d, 100 mg/kg/d, or 200 mg/kg/d once daily for 35 days. One group is a control group with administration of the vehicle only.
Animals are evaluated pre-operation (day −1), then every 7 days after the operation (7, 14, 21, 28, and 35) by forelimb and hindlimb placing tests and body swing test, and given scores as described in Example 1.
On day 35 after MCAO, rats in the control group and the group with the highest dosage were sacrificed and their brains evaluated as in Example 1. The rats in other groups are sacrificed and the brains were removed and flash frozen for further analysis.

[3] = test system: embolic middle cerebral artery occlusion (MCAO) in rats; assay: Functional recovery following embolic MCAO in rats (Example 13); assay type: in vivo, Wistar rats; conditions: for foot fault test, compared to EPO treatment group: 10 h treatment group
Text: The purpose of this study was to evaluate the efficacy of arimoclomol in enhancing neurological recovery in a model of embolic middle cerebral artery occlusion (MCAO) in rats (Zhang R L et al. Brain Research 766:83-92, 1997). The embolic MCAO model emulates the damage caused by an embolic stroke which is generally the result of ischemia associated damage or diseases. The embolic MCAO model also closely models the types of damage caused by a stroke because the occlusion is not permanent. Moreover, the embolus often undergoes spontaneous clot lysis and reperfusion within 24-48 hours post-stroke, which is similar to a subset of human stroke. Damage from a stroke can be brought about in two ways. […] Second, the resulting pressure from the initial surge in blood volume once the occlusion is cleared can also result in further neurological damage and damage to the effected blood vessel. This embolic stroke model provides guidance for the neurological recovery resulting from each of these phenomena.
Sixty male Wistar rats between 8-12 weeks of age were operated on to isolate the external carotid artery (ECA) and the internal carotid artery (ICA). A single clot was introduced into the ECA lumen through a PE-50 catheter (0.3 mm outer diameter) attached to a 100 μL Hamilton syringe filled with 0.9% saline via a small puncture. A 16 mm length of the PE-50 catheter was advanced from the ECA into the lumen of the ICA. Subsequently, the clot was injected into the ICA with 2-3 μL of 0.9% saline. The catheter was withdrawn and the right ECA ligated.
The rats were then randomly divided into 6 groups of 10 animals each. To the control group, phosphate buffered saline (PBS) was administered, p.o., starting at six hours after embolic stroke for 28 consecutive days. To the second group, Erythropoitein (EPO) was administered, i.p., starting at 24 hours after embolic stroke for 7 consecutive days (41.7 μg/kg/d). To the third group, arimoclomol was administered daily p.o. (200 mg/kg/d), starting 6 hours after embolic stroke for 28 consecutive days. To the fourth group, arimoclomol was administered daily p.o. (200 mg/kg/d), starting 10 hours after embolic stroke for 28 consecutive days. To the fifth group, arimoclomol was administered p.o. (200 mg/kg/d), starting 24 hours after embolic stroke for 28 consecutive days. To the sixth group, arimoclomol was administered p.o. (200 mg/kg/d), starting 48 hours after embolic stroke for 28 consecutive days.
Animals were evaluated at 1, 3, 7, 14, 21, and 28 days after initiation of embolic stroke by a modified neurological severity score (mNSS) and adhesive-removal and foot fault tests. These tests are widely accepted as standard tests indicative of functional recovery after a stroke. (Chen et al., Ann Neurol 53: 743-751, 2003; Wang et al., Stroke 35: 1732-1737, 2004; Zhang et al, Circulation 3486-3494, 2005).
For the modified neurological severity score (mNSS), the severity of injury was graded on a scale of 0 to 18. This score was determined via the evaluation of a variety of motor tests, sensory tests, balance beam tests and reflex tests as illustrated in Table II below. To determine the score resulting from these tests, one point was awarded for the inability to perform any of the tests or for the lack of a tested reflex. Accordingly, the higher the score, the more severe the injury. (Chen et al., Ann Neurol 53: 743-751, 2003; Wang et al., Stroke 35: 1732-1737, 2004; Zhang et al, Circulation 3486-3494, 2005).
For the adhesive removal test, the rats are trained prior to embolic stroke to remove strips of packing tape (5 cm). The training period constitutes of 3 sessions. Each session consists of 6 bilateral stimulation trials conducted over 2 days wherein the 5 cm strips of packing tape were placed firmly around both wrists of the animal so that they covered the hairless part of the forepaw. […]

[4] = 6 h, 10 h, and 24 h treatment groups, on and after the 14-day time point

[O-][n+]1cccc(/C(Cl)=N/OC[C@H](O)CN2CCCCC2)c1 [arimoclomol, N-[2-hydroxy-3-(1-piperidinyl)propoxy]-pyridine-1-oxide-3-carboximidoyl chloride]
penetration of the human blood-brain barrier (CSF levels) [1]: penetrates the human blood-brain barrier
behavioral scores compared to vehicle control group ([2]; 25 mg/kg/day p.o. from one day after occlusion): no significant difference
behavioral scores (forelimb placement, hindlimb placement, body swing tests) ([2]; 50, 100 and 200 mg/kg/day p.o. from one day after occlusion, 35 days): significant dose related improvement
changes in infarct volume ([2]; day 35, highest dosage vs control): no changes
changes in body weight ([2]; dose study, 35 days): no changes
effective doses in the stroke recovery model ([2]; p.o. once daily): 50 to 200 mg/kg/day
maximum effective dose in the study ([2]; p.o. once daily): 200 mg/kg/day
adhesive-removal test, recovery compared to control group ([3]; 200 mg/kg/d p.o., start 6 h, 10 h, 24 h and 48 h after embolic stroke, after the 14 day time point): significantly superior
foot fault test, recovery compared to control groups [3, 4]: significantly superior
mNSS test, recovery compared to control groups [3, 4]: significantly greater
infarct volume compared to control groups ([3]; 6 h and 10 h treatment groups, after 28 days of treatment): significantly lower percentage of infarct volume
foot fault test, compared to EPO treatment group ([3]; 21-day time point): significantly superior
foot fault test, compared to EPO treatment group ([3]; 28-day time point): slightly superior
adhesive-removal test, improvement percentage compared to control ([3]; day 28, each time group (6, 10, 24, 48 h)): greater than 25%
